Laboratory results as given in ChEMBL document CHEMBL3046627, “Synthesis and in vitro study of antibacterial, antifungal activities of some novel bisquinolines” (2013).
≈ marks a conversion by molar mass, not a printed value. Calls of active or inactive are those of the source. No cut-off for these calls is given here.

Tests used:
Escherichia coli [1] = test: Antibacterial activity against Escherichia coli 319 assessed as growth inhibition after 24 hr by agar dilution method; type: functional; details: Escherichia coli, 319, 24 h
Candida tropicalis [2] = test: Antifungal activity against Candida tropicalis assessed as growth inhibition at MIC after 96 hr by agar dilution method; type: functional
Staphylococcus aureus [3] = test: Antibacterial activity against Staphylococcus aureus 29737 assessed as growth inhibition at MIC after 24 hr by agar dilution method; type: functional
Pseudomonas aeruginosa [4] = test: Antibacterial activity against Pseudomonas aeruginosa 71 assessed as growth inhibition after 24 hr by agar dilution method; type: functional; details: Pseudomonas aeruginosa, 71, 24 h
Pseudomonas aeruginosa [5] = test: Antibacterial activity against Pseudomonas aeruginosa 71 assessed as growth inhibition at MIC after 24 hr by agar dilution method; type: functional
Cryptococcus neoformans [6] = test: Antifungal activity against Cryptococcus neoformans assessed as growth inhibition after 96 hr by agar dilution method; type: functional
Vibrio cholerae [7] = test: Antibacterial activity against Vibrio cholerae 759 assessed as growth inhibition at MIC after 24 hr by agar dilution method; type: functional
Shigella dysenteriae [8] = test: Antibacterial activity against Shigella dysenteriae 15 assessed as growth inhibition at MIC after 24 hr by agar dilution method; type: functional
Micrococcus luteus [9] = test: Antibacterial activity against Micrococcus luteus ATCC 9341 assessed as growth inhibition after 24 hr by agar dilution method; type: functional; details: ATCC 9341, 24 h
Klebsiella pneumoniae [10] = test: Antibacterial activity against Klebsiella pneumoniae J/I/4 assessed as growth inhibition at MIC after 24 hr by agar dilution method; type: functional
Aspergillus niger [11] = test: Antifungal activity against Aspergillus niger assessed as growth inhibition after 96 hr by agar dilution method; type: functional
Vibrio cholerae [12] = test: Antibacterial activity against Vibrio cholerae 759 assessed as growth inhibition after 24 hr by agar dilution method; type: functional; details: Vibrio cholerae, 759, 24 h
Candida albicans [13] = test: Antifungal activity against Candida albicans assessed as growth inhibition at MIC after 96 hr by agar dilution method; type: functional
Candida tropicalis [14] = test: Antifungal activity against Candida tropicalis assessed as growth inhibition after 96 hr by agar dilution method; type: functional
Candida albicans [15] = test: Antifungal activity against Candida albicans assessed as growth inhibition after 96 hr by agar dilution method; type: functional
Staphylococcus aureus [16] = test: Antibacterial activity against Staphylococcus aureus 29737 assessed as growth inhibition after 24 hr by agar dilution method; type: functional; details: Staphylococcus aureus, 29737, 24 h
Escherichia coli [17] = test: Antibacterial activity against Escherichia coli 319 assessed as growth inhibition at MIC after 24 hr by agar dilution method; type: functional
Aspergillus niger [18] = test: Antifungal activity against Aspergillus niger assessed as growth inhibition at MIC after 96 hr by agar dilution method; type: functional
Bacillus pumilus [19] = test: Antibacterial activity against Bacillus pumilus 11778 assessed as growth inhibition after 24 hr by agar dilution method; type: functional; details: Bacillus pumilus, 11778, 24 h
Klebsiella pneumoniae [20] = test: Antibacterial activity against Klebsiella pneumoniae J/I/4 assessed as growth inhibition after 24 hr by agar dilution method; type: functional; details: J/I/4, 24 h
Cryptococcus neoformans [21] = test: Antifungal activity against Cryptococcus neoformans assessed as growth inhibition at MIC after 96 hr by agar dilution method; type: functional
Bacillus pumilus [22] = test: Antibacterial activity against Bacillus pumilus 11778 assessed as growth inhibition at MIC after 24 hr by agar dilution method; type: functional
Micrococcus luteus [23] = test: Antibacterial activity against Micrococcus luteus ATCC 9341 assessed as growth inhibition at MIC after 24 hr by agar dilution method; type: functional
Shigella dysenteriae [24] = test: Antibacterial activity against Shigella dysenteriae 15 assessed as growth inhibition after 24 hr by agar dilution method; type: functional; details: Shigella dysenteriae, 15, 24 h
Escherichia coli [25] = test: Antibacterial activity against Escherichia coli 319 assessed as growth inhibition at MIC; type: functional, organism-based; details: TDE = time-dependent effect
Klebsiella pneumoniae [26] = test: Antibacterial activity against Klebsiella pneumoniae J/I/4 assessed as cell wall deformation at MIC after 24 hr by scanning electron microscopic analysis relative to untreated control; type: functional, organism-based
Klebsiella pneumoniae [27] = test: Antibacterial activity against Klebsiella pneumoniae J/I/4 assessed as cell agglomeration at MIC after 24 hr by scanning electron microscopic analysis relative to untreated control; type: functional, organism-based
Klebsiella pneumoniae [28] = test: Antibacterial activity against Klebsiella pneumoniae J/I/4 assessed as growth inhibition at MIC; type: functional, organism-based; details: TDE = time-dependent effect

Row | Compound | MIC (Escherichia coli [1]) | diameter of the inhibition zone (DIZ) (Staphylococcus aureus [3]) | MIC (Pseudomonas aeruginosa [4]) | diameter of the inhibition zone (DIZ) (Pseudomonas aeruginosa [5]) | MIC (Cryptococcus neoformans [6]) | diameter of the inhibition zone (DIZ) (Vibrio cholerae [7]) | diameter of the inhibition zone (DIZ) (Shigella dysenteriae [8]) | MIC (Micrococcus luteus [9]) | diameter of the inhibition zone (DIZ) (Klebsiella pneumoniae [10]) | MIC (Aspergillus niger [11]) | MIC (Vibrio cholerae [12]) | MIC (Candida tropicalis [14]) | MIC (Candida albicans [15]) | MIC (Staphylococcus aureus [16]) | diameter of the inhibition zone (DIZ) (Escherichia coli [17]) | MIC (Bacillus pumilus [19]) | MIC (Klebsiella pneumoniae [20]) | diameter of the inhibition zone (DIZ) (Bacillus pumilus [22]) | diameter of the inhibition zone (DIZ) (Micrococcus luteus [23]) | MIC (Shigella dysenteriae [24]) | also measured
1 | Clc1ccc(OCc2cccc(COc3ccc(Cl)c4cccnc34)c2)c2ncccc12 | > 500 µg/mL | 8 mm | 256 µg/mL (≈ 555 µM) | 6 mm | inactive | 6 mm | 8 mm | 64 µg/mL (≈ 139 µM) | 6 mm | 1000 µg/mL (≈ 2170 µM) | 256 µg/mL (≈ 555 µM) | 1000 µg/mL (≈ 2170 µM) | inactive | 128 µg/mL (≈ 277 µM) | inactive | > 500 µg/mL | 32 µg/mL (≈ 69.4 µM) | inactive | 8 mm | 32 µg/mL (≈ 69.4 µM) | diameter of the inhibition zone (DIZ) (Candida tropicalis [2]): 7 mm; diameter of the inhibition zone (DIZ) (Candida albicans [13]): inactive; diameter of the inhibition zone (DIZ) (Aspergillus niger [18]): 8 mm; diameter of the inhibition zone (DIZ) (Cryptococcus neoformans [21]): inactive
2 | Clc1ccc(OCc2ccccc2COc2ccc(Cl)c3cccnc23)c2ncccc12 | 32 µg/mL (≈ 69.4 µM) | 7 mm | 64 µg/mL (≈ 139 µM) | 7.5 mm | inactive | 7 mm | 6 mm | 32 µg/mL (≈ 69.4 µM) | inactive | 1000 µg/mL (≈ 2170 µM) | 32 µg/mL (≈ 69.4 µM) | 1000 µg/mL (≈ 2170 µM) | 1500 µg/mL (≈ 3250 µM) | 128 µg/mL (≈ 277 µM) | 6.5 mm | 32 µg/mL (≈ 69.4 µM) | > 500 µg/mL | 6 mm | 6.5 mm | 64 µg/mL (≈ 139 µM) | diameter of the inhibition zone (DIZ) (Candida tropicalis [2]): 9 mm; diameter of the inhibition zone (DIZ) (Candida albicans [13]): 7 mm; diameter of the inhibition zone (DIZ) (Aspergillus niger [18]): 7.5 mm; diameter of the inhibition zone (DIZ) (Cryptococcus neoformans [21]): inactive; growth inhibition (GI) (Escherichia coli [25]): tde
3 | c1ccc(COc2cccc3cccnc23)c(COc2cccc3cccnc23)c1 | > 500 µg/mL | 7.2 mm | > 500 µg/mL | 6 mm | inactive | inactive | 6.5 mm | > 500 µg/mL | 8 mm | inactive | > 500 µg/mL | inactive | inactive | 32 µg/mL (≈ 81.5 µM) | inactive | 500 µg/mL (≈ 1270 µM) | 32 µg/mL (≈ 81.5 µM) | inactive | 7 mm | 32 µg/mL (≈ 81.5 µM) | diameter of the inhibition zone (DIZ) (Candida tropicalis [2]): inactive; diameter of the inhibition zone (DIZ) (Candida albicans [13]): inactive; diameter of the inhibition zone (DIZ) (Aspergillus niger [18]): inactive; diameter of the inhibition zone (DIZ) (Cryptococcus neoformans [21]): inactive
4 | Cc1ccc2cccc(OCc3ccccc3COc3cccc4ccc(C)nc34)c2n1 | > 1000 µg/mL | 6 mm | > 500 µg/mL | inactive | inactive | 8 mm | 8 mm | 128 µg/mL (≈ 304 µM) | 8 mm | 1000 µg/mL (≈ 2380 µM) | 64 µg/mL (≈ 152 µM) | 2000 µg/mL (≈ 4760 µM) | inactive | 128 µg/mL (≈ 304 µM) | inactive | > 500 µg/mL | 32 µg/mL (≈ 76.1 µM) | 7 mm | 7 mm | 32 µg/mL (≈ 76.1 µM) | diameter of the inhibition zone (DIZ) (Candida tropicalis [2]): 7 mm; diameter of the inhibition zone (DIZ) (Candida albicans [13]): inactive; diameter of the inhibition zone (DIZ) (Aspergillus niger [18]): 9 mm; diameter of the inhibition zone (DIZ) (Cryptococcus neoformans [21]): inactive
5 | Clc1ccc(OCc2cc3ccccc3cc2COc2ccc(Cl)c3cccnc23)c2ncccc12 | 32 µg/mL (≈ 62.6 µM) | 6 mm | > 500 µg/mL | inactive | inactive | 8 mm | inactive | 32 µg/mL (≈ 62.6 µM) | 7 mm | inactive | 128 µg/mL (≈ 250 µM) | inactive | inactive | > 500 µg/mL | 7.2 mm | 32 µg/mL (≈ 62.6 µM) | 32 µg/mL (≈ 62.6 µM) | 8 mm | 8 mm | > 500 µg/mL | Activity (Klebsiella pneumoniae [26]): Active; Activity (Klebsiella pneumoniae [27]): Active; growth inhibition (GI) (Klebsiella pneumoniae [28]): tde
